These results are taken from patent publication US10053465B2 (Incyte Corporation, priority 2015, dated 2018).

Where two headings read alike, the source gives them in different places. A value given as a limit tells only on which side of the number the result lay.

Test [1] has as its target JAK2 (Homo sapiens (Human), UniProt O60674). Conditions: ratio of IC50 at 1 mM ATP; cited from earlier work.
The target in test [2] is T1, c-Mer (Homo sapiens (Human), UniProt Q12866). Put plainly: biochemical.
T1 sequence (Q12866 21-999): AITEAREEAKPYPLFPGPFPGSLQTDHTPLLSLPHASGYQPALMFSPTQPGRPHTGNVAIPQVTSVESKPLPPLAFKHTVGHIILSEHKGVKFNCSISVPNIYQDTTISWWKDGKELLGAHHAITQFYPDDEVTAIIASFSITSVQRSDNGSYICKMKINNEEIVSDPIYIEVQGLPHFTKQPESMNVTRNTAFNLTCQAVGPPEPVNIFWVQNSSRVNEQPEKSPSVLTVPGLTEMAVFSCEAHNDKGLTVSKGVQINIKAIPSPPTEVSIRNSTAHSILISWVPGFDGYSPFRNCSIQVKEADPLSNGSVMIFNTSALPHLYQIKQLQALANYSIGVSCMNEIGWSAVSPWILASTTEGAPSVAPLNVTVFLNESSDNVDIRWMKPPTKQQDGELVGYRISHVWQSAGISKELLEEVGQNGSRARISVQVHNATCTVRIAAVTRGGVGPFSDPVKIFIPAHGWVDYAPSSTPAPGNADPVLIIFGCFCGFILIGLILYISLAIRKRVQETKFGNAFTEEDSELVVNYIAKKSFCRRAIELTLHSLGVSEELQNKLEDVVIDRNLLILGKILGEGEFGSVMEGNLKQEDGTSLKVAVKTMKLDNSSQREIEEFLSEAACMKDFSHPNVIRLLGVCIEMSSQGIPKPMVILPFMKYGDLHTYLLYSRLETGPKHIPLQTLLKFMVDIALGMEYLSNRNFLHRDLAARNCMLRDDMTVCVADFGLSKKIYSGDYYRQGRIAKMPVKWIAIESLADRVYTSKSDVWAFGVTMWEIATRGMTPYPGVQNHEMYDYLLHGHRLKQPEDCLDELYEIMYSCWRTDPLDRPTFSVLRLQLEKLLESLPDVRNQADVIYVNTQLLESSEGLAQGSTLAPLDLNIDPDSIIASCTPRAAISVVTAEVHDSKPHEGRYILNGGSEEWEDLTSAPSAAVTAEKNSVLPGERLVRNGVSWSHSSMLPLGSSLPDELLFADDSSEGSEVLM
Description: (§1) 0.1 ul test compounds dissolved in DMSO were transferred from compound plates to white 384-well assay plates (Greiner [sequence] plates). […] The plate was protected from light and incubated at room temperature for 60 min.
The target of test [3] is Phospho-Axl (Homo sapiens (Human), UniProt P30530). Put plainly: biochemical.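 Note: test system is recombinant Axl protein that was first autophosphorylated with ATP and MgCl2.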
Chain of Phospho-Axl (P30530 26-894): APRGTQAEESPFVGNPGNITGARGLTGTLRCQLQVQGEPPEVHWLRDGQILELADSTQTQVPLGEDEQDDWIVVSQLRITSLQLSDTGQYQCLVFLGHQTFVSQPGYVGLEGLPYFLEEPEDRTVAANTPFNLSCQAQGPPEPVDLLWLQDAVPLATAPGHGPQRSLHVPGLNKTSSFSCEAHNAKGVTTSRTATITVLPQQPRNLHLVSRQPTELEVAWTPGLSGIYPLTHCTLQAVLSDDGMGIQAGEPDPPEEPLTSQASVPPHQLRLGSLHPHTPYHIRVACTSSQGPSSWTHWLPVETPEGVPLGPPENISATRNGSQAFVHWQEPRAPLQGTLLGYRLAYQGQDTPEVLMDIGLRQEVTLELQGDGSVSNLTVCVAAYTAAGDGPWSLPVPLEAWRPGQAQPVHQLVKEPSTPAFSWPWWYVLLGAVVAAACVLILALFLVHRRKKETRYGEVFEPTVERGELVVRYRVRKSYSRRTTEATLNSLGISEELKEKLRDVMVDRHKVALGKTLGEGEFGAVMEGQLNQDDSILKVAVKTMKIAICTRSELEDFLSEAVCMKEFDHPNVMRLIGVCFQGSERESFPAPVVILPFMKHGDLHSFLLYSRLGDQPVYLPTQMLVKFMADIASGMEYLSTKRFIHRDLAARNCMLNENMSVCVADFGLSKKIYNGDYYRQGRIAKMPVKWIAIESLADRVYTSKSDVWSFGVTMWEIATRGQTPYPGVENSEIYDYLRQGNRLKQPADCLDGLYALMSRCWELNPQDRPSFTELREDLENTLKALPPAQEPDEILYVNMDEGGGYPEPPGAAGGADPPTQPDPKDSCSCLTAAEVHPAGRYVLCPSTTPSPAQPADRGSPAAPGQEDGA
Description: Autophosphorylation of Axl was carried out by incubating the recombinant Axl protein (Life Technologies, PV4275) in buffer containing 50 mM Tris, pH7.5, 0.2 mg/ml Axl, 5 mM ATP, 20 mM MgCl2 and 2 mM DTT at room temperature for 1 hour.
as §1
In test [4] the target is Tyro3 (Homo sapiens (Human), UniProt Q06418). Put plainly: biochemical. The settings on record: read-out: Tyro3IC50.
Chain of Tyro3 (Q06418 41-890): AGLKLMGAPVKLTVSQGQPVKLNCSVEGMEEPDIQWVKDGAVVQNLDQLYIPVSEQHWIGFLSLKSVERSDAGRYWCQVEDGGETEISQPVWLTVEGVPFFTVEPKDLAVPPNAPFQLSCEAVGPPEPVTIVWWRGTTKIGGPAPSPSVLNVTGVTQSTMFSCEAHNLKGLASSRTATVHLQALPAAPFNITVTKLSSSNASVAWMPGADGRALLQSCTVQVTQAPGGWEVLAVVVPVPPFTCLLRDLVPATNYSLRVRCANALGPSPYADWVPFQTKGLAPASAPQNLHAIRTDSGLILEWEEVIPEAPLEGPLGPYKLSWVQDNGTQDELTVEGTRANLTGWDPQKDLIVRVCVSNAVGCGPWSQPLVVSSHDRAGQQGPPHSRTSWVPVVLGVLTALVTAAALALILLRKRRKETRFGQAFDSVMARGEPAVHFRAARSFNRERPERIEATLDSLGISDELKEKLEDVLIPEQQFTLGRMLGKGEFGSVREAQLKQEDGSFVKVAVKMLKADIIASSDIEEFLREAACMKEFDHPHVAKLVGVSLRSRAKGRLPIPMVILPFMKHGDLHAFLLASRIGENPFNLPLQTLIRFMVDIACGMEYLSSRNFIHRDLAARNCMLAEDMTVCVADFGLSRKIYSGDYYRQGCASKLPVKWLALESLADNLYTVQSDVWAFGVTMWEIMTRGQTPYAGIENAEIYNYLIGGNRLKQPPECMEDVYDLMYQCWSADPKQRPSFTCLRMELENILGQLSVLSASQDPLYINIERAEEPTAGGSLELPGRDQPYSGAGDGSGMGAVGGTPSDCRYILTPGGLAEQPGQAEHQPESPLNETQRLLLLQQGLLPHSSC
Description: as §1
The target in test [5] is T1, c-Mer. Conditions: read-out: c-Mer IC50; HTRF, 60 min room temperature.
Description: as §1
Test [6] deals with NK cells. Conditions: Paolino et al., 2014; cited from earlier work.
The subject of test [7] is tumor models with different histologies. The settings on record: Paolino et al., 2014; cited from earlier work.

Chain of JAK2 (O60674 whole entry, species assumed): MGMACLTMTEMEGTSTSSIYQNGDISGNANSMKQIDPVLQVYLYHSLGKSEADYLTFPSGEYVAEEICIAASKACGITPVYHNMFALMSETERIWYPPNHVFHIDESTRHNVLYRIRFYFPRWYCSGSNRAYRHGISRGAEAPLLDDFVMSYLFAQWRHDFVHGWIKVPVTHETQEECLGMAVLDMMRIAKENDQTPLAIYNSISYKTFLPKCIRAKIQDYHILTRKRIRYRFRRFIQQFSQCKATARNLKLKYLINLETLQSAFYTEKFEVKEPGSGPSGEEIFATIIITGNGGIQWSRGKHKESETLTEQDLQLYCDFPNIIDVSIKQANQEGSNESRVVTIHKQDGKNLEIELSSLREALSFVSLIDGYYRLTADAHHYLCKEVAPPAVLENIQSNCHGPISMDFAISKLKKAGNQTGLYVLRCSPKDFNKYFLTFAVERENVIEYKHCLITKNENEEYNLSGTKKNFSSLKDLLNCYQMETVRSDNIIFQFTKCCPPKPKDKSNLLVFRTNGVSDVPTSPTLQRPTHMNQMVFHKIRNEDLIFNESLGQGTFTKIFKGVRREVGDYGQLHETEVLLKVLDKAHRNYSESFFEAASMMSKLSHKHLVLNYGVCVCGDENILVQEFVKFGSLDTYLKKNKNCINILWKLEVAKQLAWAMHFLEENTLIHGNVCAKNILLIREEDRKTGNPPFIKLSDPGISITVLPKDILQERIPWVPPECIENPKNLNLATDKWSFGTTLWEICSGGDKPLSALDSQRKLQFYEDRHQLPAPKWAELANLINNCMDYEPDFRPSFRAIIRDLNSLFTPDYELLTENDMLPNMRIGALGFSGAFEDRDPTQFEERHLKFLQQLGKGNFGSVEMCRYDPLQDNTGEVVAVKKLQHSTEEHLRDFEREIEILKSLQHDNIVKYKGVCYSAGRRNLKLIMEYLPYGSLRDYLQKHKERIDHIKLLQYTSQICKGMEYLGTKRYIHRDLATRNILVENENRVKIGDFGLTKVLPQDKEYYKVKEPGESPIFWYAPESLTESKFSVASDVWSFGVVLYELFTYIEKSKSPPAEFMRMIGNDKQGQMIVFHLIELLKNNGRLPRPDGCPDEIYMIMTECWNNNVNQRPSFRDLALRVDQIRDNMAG

As to `N#CCC1(n2cc(-c3ncnc4[nH]ccc34)cn2)CN(C2CCN(C(=O)c3ccnc(C(F)(F)F)n3)CC2)C1` [Compound 9, [3-[4-(7H-pyrrolo[2,3-d]pyrimidin-4-yl)-1H-pyrazol-1-yl]-1-(1-{[2-(trifluoromethyl)pyrimidin-4-yl]carbonyl}piperidin-4-yl)azetidin-3-yl]acetonitrile], the JAK2/JAK1 in test [1] is listed as greater than 10.

Turning to `Cn1ccc(C(=O)NCC2(c3cccc(-c4ncnc5[nH]ccc45)c3)Cc3ccccc3C2)n1` [Example 29], the IC50 in test [2] was 1000 to 3000 nM; in test [3] (HTRF, 60 min room temperature), 1000 to 3000 nM; in test [4] (HTRF, 60 min room temperature), greater than 3000 nM.

In the case of `Cc1ncoc1C(=O)NCC1(c2cccc(-c3ncnc4[nH]ccc34)c2)Cc2ccccc2C1` [Example 30], the IC50 in test [2] was 500 to 1000 nM; in test [3] (HTRF, 60 min room temperature), 500 to 1000 nM; in test [4] (HTRF, 60 min room temperature) it was greater than 3000 nM.

Take `Cn1nccc1C(=O)NCC1(c2cccc(-c3ncnc4[nH]ccc34)c2)Cc2ccccc2C1` [Example 32, 1-Methyl-N-({2-[3-(7H-pyrrolo[2,3-d]pyrimidin-4-yl)phenyl]-2,3-dihydro-1H-inden-2-yl}methyl)-1H-pyrazole-5-carboxamide]: the IC50 in test [3] (HTRF, 60 min room temperature) is greater than 3000 nM; in test [5], greater than 3000 nM; in test [4] it was greater than 3000 nM.

On to `NCC1(c2cccc(-c3ncnc4[nH]ccc34)c2)Cc2ccc(CN3CC(O)C3)cc2C1` (stereo not shown) [Example 48, 1-((2-(3-(7H-Pyrrolo[2,3-d]pyrimidin-4-yl)phenyl)-2-(aminomethyl)-2,3-dihydro-1H-inden-5-yl)methyl)azetidin-3-ol], for which the IC50 in test [3] (HTRF, 60 min room temperature) is greater than 3000 nM; in test [5] it was greater than 3000 nM; in test [4] (HTRF, 60 min room temperature) it was 1000 to 3000 nM.

Turning to `N#Cc1ccc2c(c1)CC(CN)(c1cccc(-c3ncnc4[nH]ccc34)c1)C2` (stereo not shown) [Example 49, 2-(Aminomethyl)-2-[3-(7H-pyrrolo[2,3-d]pyrimidin-4-yl)phenyl]indane-5-carbonitrile], the IC50 in test [3] (HTRF, 60 min room temperature) was less than 500 nM; in test [5], less than 500 nM; in test [4] (HTRF, 60 min room temperature), 1000 to 3000 nM.

Turning to `NCC1(c2cccc(-c3ncnc4[nH]ccc34)c2)Cc2ccc(N3CC(F)C3)cc2C1` (stereo not shown) [Example 56, 1-{5-(3-Fluoroazetidin-1-yl)-2-[3-(7H-pyrrolo[2,3-d]pyrimidin-4-yl)phenyl]-2,3-dihydro-1H-inden-2-yl}methanamine], the IC50 was less than 500 nM in test [3] (HTRF, 60 min room temperature); less than 500 nM in test [5]; 1000 to 3000 nM in test [4] (HTRF, 60 min room temperature).

`CCn1cnc(-c2ccc3c(c2)CC(CN)(c2cccc(-c4ncnc5[nH]ccc45)c2)C3)c1` (stereo not shown) [Example 76, 1-{5-(1-Ethyl-1H-imidazol-4-yl)-2-[3-(7H-pyrrolo[2,3-d]pyrimidin-4-yl)phenyl]-2,3-dihydro-1H-inden-2-yl}methanamine]: the IC50 in test [3] was less than 500 nM; in test [5], less than 500 nM; in test [4] (HTRF, 60 min room temperature), 500 to 1000 nM.

`CCCCNc1nc(-c2cccc(C3(CN)Cc4ccccc4C3)c2)c2cc[nH]c2n1` [Example 80, 4-{3-[2-(Aminomethyl)-2,3-dihydro-1H-inden-2-yl]phenyl}-N-butyl-7H-pyrrolo[2,3-d]pyrimidin-2-amine]: the IC50 in test [3] (HTRF, 60 min room temperature) is less than 500 nM; in test [5], less than 500 nM; in test [4], less than 500 nM.

For `CNc1nc(-c2cccc(C3(CN)Cc4ccccc4C3)c2)c2cc[nH]c2n1` [Example 86, 4-{3-[2-(Aminomethyl)-2,3-dihydro-1H-inden-2-yl]phenyl}-N-methyl-7H-pyrrolo[2,3-d]pyrimidin-2-amine], the IC50 in test [3] (HTRF, 60 min room temperature) is less than 500 nM; in test [5], less than 500 nM; in test [4] (HTRF, 60 min room temperature) it was 1000 to 3000 nM.

Consider `CCNc1nc(-c2cccc(C3(CN)Cc4ccccc4C3)c2)c2cc[nH]c2n1` [Example 87, 4-{3-[2-(Aminomethyl)-2,3-dihydro-1H-inden-2-yl]phenyl}-N-ethyl-7H-pyrrolo[2,3-d]pyrimidin-2-amine], for which the IC50 in test [3] (HTRF, 60 min room temperature) was less than 500 nM; in test [5] it was less than 500 nM; in test [4] (HTRF, 60 min room temperature), 1000 to 3000 nM.

`CC(C)Nc1nc(-c2cccc(C3(CN)Cc4ccccc4C3)c2)c2cc[nH]c2n1` [Example 88, 4-{3-[2-(Aminomethyl)-2,3-dihydro-1H-inden-2-yl]phenyl}-N-isopropyl-7H-pyrrolo[2,3-d]pyrimidin-2-amine]: the IC50 in test [3] (HTRF, 60 min room temperature) is less than 500 nM; in test [5], less than 500 nM; in test [4], greater than 3000 nM.

As to `NCC1(c2cccc(-c3nc(NC4CCC4)nc4[nH]ccc34)c2)Cc2ccccc2C1` [Example 89, 4-{3-[2-(Aminomethyl)-2,3-dihydro-1H-inden-2-yl]phenyl}-N-cyclobutyl-7H-pyrrolo[2,3-d]pyrimidin-2-amine], the IC50 in test [3] (HTRF, 60 min room temperature) is less than 500 nM; in test [5] it was less than 500 nM; in test [4] it was less than 500 nM.

Take `NCC1(c2cccc(-c3nc(NC4CCCC4)nc4[nH]ccc34)c2)Cc2ccccc2C1` [Example 90, 4-{3-[2-(Aminomethyl)-2,3-dihydro-1H-inden-2-yl]phenyl}-N-cyclopentyl-7H-pyrrolo[2,3-d]pyrimidin-2-amine]: the IC50 in test [3] (HTRF, 60 min room temperature) is less than 500 nM; in test [5] it was less than 500 nM; in test [4] (HTRF, 60 min room temperature), 500 to 1000 nM.

Turning to `NCC1(c2cccc(-c3nc(NC4CCCCC4)nc4[nH]ccc34)c2)Cc2ccccc2C1` [Example 91, 4-{3-[2-(Aminomethyl)-2,3-dihydro-1H-inden-2-yl]phenyl}-N-cyclohexyl-7H-pyrrolo[2,3-d]pyrimidin-2-amine], the IC50 in test [3] (HTRF, 60 min room temperature) is less than 500 nM; in test [5], less than 500 nM; in test [4] (HTRF, 60 min room temperature) it was 1000 to 3000 nM.

`Cn1cc(Nc2nc(-c3ccnc(C4(CN)Cc5ccccc5C4)c3)c3cc[nH]c3n2)cn1` [Example 94, 4-{2-[2-(Aminomethyl)-2,3-dihydro-1H-inden-2-yl]pyridin-4-yl}-N-(1-methyl-1H-pyrazol-4-yl)-7H-pyrrolo[2,3-d]pyrimidin-2-amine]: the IC50 in test [3] (HTRF, 60 min room temperature) is less than 500 nM; in test [5], less than 500 nM; in test [4], less than 500 nM.

On to `NCC1(c2cc(-c3nc(Nc4cccc(CN5CCOCC5)c4)nc4[nH]ccc34)ccn2)Cc2ccccc2C1` [Example 95, 4-{2-[2-(Aminomethyl)-2,3-dihydro-1H-inden-2-yl]pyridin-4-yl}-N-[3-(morpholin-4-ylmethyl)phenyl]-7H-pyrrolo[2,3-d]pyrimidin-2-amine], for which the IC50 in test [3] (HTRF, 60 min room temperature) is less than 500 nM; in test [5] it was less than 500 nM; in test [4], less than 500 nM.

Take `COc1cnc2[nH]ccc2c1-c1ccnc(C2(CN)Cc3ccccc3C2)c1` [Example 96, 1-{2-[4-(5-Methoxy-1H-pyrrolo[2,3-b]pyridin-4-yl)pyridin-2-yl]-2,3-dihydro-1H-inden-2-yl}methanamine]: the IC50 in test [3], in test [5] and in test [4] was less than 500 nM throughout.

On to `NCC1(c2cc(-c3ccnc4[nH]ncc34)ccn2)Cc2ccccc2C1` [Example 97, 1-{2-[4-(1H-Pyrazolo[3,4-b]pyridin-4-yl)pyridin-2-yl]-2,3-dihydro-1H-inden-2-yl}methanamine], for which the IC50 is less than 500 nM in test [2]; less than 500 nM in test [3] (HTRF, 60 min room temperature); 1000 to 3000 nM in test [4] (HTRF, 60 min room temperature).

Take `NCC1(c2cccc(-c3ncnc4[nH]ccc34)c2)CCc2ccccc2C1` (stereo not shown) [Example 99, 1-{2-[3-(7H-Pyrrolo[2,3-d]pyrimidin-4-yl)phenyl]-1,2,3,4-tetrahydronaphthalen-2-yl}methanamine]: the IC50 in test [3] and in test [5] was less than 500 nM throughout.

In the case of `NCC1(n2cc(-c3ncnc4[nH]ccc34)ccc2=O)Cc2ccccc2C1` [Example 100, 1-[2-(Aminomethyl)-2,3-dihydro-1H-inden-2-yl]-5-(7H-pyrrolo[2,3-d]pyrimidin-4-yl)pyridin-2(1H)-one], the IC50 in test [3] (HTRF, 60 min room temperature) was less than 500 nM; in test [5], less than 500 nM.

As for `CCOc1cn(-c2ccc(F)cc2C)nc1C(=O)Nc1ccc(Oc2ccnc3cc(OC)c(OC)cc23)c(F)c1` [LDC1267], the NK cell activation entry in test [6] is recorded as “activates NK cells”. The “metastasis in tumor models” value in test [7] was “blocks metastasis in tumor models with different histologies”.
